Test results published in patent publication US20240252454A1, “COMPOSITION COMPRISING AN INHIBITOR OF MITOCHONDRIAL TRANSCRIPTION” (LEAD DISCOVERY CENTER GMBH, priority 2021, published 2024).

How the values were obtained:
Assay type in all cases: cell-based
A2780 [1] = experiment: SRB assay, IMT combined with inhibitor; details: A2780; dilution series of the IMT + MEK inhibitor Selumetinib (AZD6244) at constant 1 μM or 31 nM; compared to untreated or MEK inhibitor only (FIG. 1)
Method: In two studies, the ovarian cell line A2780 was tested for 72 hours with the IMT N,N-dimethyl-2-[4-(o-tolyl)-2-oxo-chromen-7-yl]oxy-propanamide (30 μM-15 nM) and the MEK inhibitor Selumetinib (30 μM-10 nM), or with the IMT 1-[2-[4-(2-chlorophenyl)-2-oxo-chromen-7-yl]oxypropanoyl]piperidine-3-sulfonamide (30 μM-15 nM) and the MEK inhibitor PD318088 (30 μM-10 nM).
Solforhodamine B assay is carried out as described in Voigt W. (2005) Sulforhodamine B Assay and Chemosensitivity. (Methods in Molecular Medicine™, vol 110. Humana Press. https://doi.org/10.1385/1-59259-869-2:039).
The determination of changes in cellular biomass was based on the Solforhodamine B assay format, carried out as described in Voigt W. (2005) Sulforhodamine B Assay and Chemosensitivity. (Methods in Molecular Medicine™, vol 110. Humana Press. https://doi.org/10.1385/1-59259-869-2:039).
(§1) All in vitro cell culture experiments were carried out under near physiological glucose concentrations (5 mM) in at least two independent replicates.
First, 30 different cell lines from 14 different tissue types were tested in the SRB assay format. The cells were examined individually for changes in growth over a period of 120 hours with dilution series of both inhibitors. Untreated cells were used as a negative control group. Subsequently, a dilution series of the respective MAPK signalling pathway SOCs was treated in combination with a fixed concentration of 40 nM (3S)-1-[(2R)-2-[4-(2-chloro-4-fluoro-phenyl)-2-oxo-chromen-7-yl]oxypropanoyl]piperidine-3-carboxylic acid.

HEC59 [2] = experiment: CellTiter-GLO (CTG) assay, combinatorial matrix; details: 30 μM to 15 nM IMT + 30 μM to 40 nM BAY-876
A2780 [3] = experiment: CellTiter-GLO (CTG) assay, combinatorial matrix; details: for Measured residual activity (cellular ATP content): A2780, 72 hours, untreated control =100%
Method: (§2) To determine the in vitro cellular viability, cellular ATP concentrations were measured using a luminescence-based homogenous assay format, as described here. […] Optimal cell density for each cell line was determined to guarantee linearity. For viability assays with compounds, cells were then seeded at a density of 200 to 1000 per well in 25 μl in 384-well plates (Greiner Bio-One, Frickenhausen, Germany). After overnight incubation at 37° C./5% CO2, 25 nl or 75 nl compounds were added to each sample well by using BIOMEK FXP Laboratory Automation Workstation (Beckman Coulter, USA). Wells with cells and 0.1% or 0.3% DMSO in culture medium were used as positive controls, wells with cells and 10 μM staurosporine (Selleck Chemicals, Huston, USA) in culture medium were used as negative controls. Upon incubation with compounds for 72 h at 37° C./5% CO2 25 μl Cell Titer Glo reagent (Promega, Madison, USA, European Pat. No. 1131441, U.S. Pat. Nos. 7,083,911, 7,452,663 and 7,732,128) 1:2 diluted with cell culture medium) was added to each well to determine cell viability. 384well-plates were placed for 2 min on an orbital microplate shaker and incubated for further 10 min at room temperature resulting in a stabilization of light signal. Luminescence was measured by Envision Plate Reader (Perkin Elmer, USA).
as §1

HEC59 [4] = experiment: CellTiter-GLO (CTG) assay, combinatorial matrix; details: HEC59, 72 hours, BAY-876 0 (IMT alone), IMT at the μM of c0, untreated control =100%
Method: as §2, §1
(§3) To establish the method described, N,N-dimethyl-2-[4-(o-tolyl)-2-oxo-chromen-7-yl]oxy-propanamide, (3S)-1-[2-[4-(2-chloro-4-fluoro-phenyl)-2-oxo-chromen-7-yl]oxypropanoyl]piperidine-3-carboxylic acid, (3S)-1-[(2R)-2-[4-(2-chloro-4-fluoro-phenyl)-2-oxo-chromen-7-yl]oxypropanoyl]piperidine-3-carboxylic acid and BAY-876 were first examined with regard to their effect on the cell growth of twelve different tumour cell lines and the IC50 values were determined. This initial study was followed by validation experiments in a matrix format and in the CTG assay, as described under Example 1), in two tumour cell lines from uterine and ovarian carcinoma (HEC59 and A2780), as well as in primary human blood cells (PBMC) (Table 7).
(§4) Combinations of one concentration of IMT (μM; y-axis) and 30 μM-33 nM BAY-876 (x-axis) were incubated for 72 hours with HEC59, hPBMCs or A2780 and then the cellular ATP-content was determined using the CellTiter-GLO assay format. A: Measured residual activity (%) based on an untreated control group (=100%). B: The combinatorial indices are provided, based on the reference groups treated with the corresponding concentration of only one inhibitor class, according to Berenbaum and Cou & Talalay. <1=synergism, 1-2=additivity, 2>=antagonism.

[5] = tested on: primary human blood cells (PBMC); experiment: CellTiter-GLO (CTG) assay, combinatorial matrix; details: hPBMCs, 72 hours, BAY-876 0 (IMT alone), IMT at the μM of c0, untreated control =100%
Method: as §2, §1, §3, §4

Compound: CC(Oc1ccc2c(-c3ccc(F)cc3Cl)cc(=O)oc2c1)C(=O)N1CCC[C@H](C(=O)O)C1 (stereo partly drawn) [(3S)-1-[2-[4-(2-chloro-4-fluoro-phenyl)-2-oxo-chromen-7-yl]oxypropanoyl]piperidine-3-carboxylic acid]
- growth kinetics in the SRB assay format (A2780 [1]): advantage of the combination treatment
- combination of IMT and GLUTi compared to treatment with only the GLUTi BAY-876 alone (HEC59 [2]): advantage of the combination
- combination of IMT and GLUTi compared to treatment with only the GLUTi BAY-876 alone (A2780 [3]; A2780, CTG matrix, 30 μM to 15 nM IMT + 30 μM to 40 nM BAY-876): advantage of the combination

Compound: C[C@@H](Oc1ccc2c(-c3ccc(F)cc3Cl)cc(=O)oc2c1)C(=O)N1CCC[C@H](C(=O)O)C1 [IMT]
- Measured residual activity (cellular ATP content) (HEC59 [4]; IMT 0.005 µM): 99%
- Measured residual activity (cellular ATP content) (HEC59 [4]; IMT 1.25 µM): 39%
- Measured residual activity (cellular ATP content) ([5]; IMT 0.059 µM): 98%
- Measured residual activity (cellular ATP content) ([5]; IMT 0.234 µM): 94%
- Measured residual activity (cellular ATP content) (A2780 [3]; BAY-876 0 (IMT alone), IMT at the μM of c0, IMT 0.12 µM): 35%
- Measured residual activity (cellular ATP content) (A2780 [3]; BAY-876 0 (IMT alone), IMT at the μM of c0, IMT 0.47 µM): 32%
- Measured residual activity (cellular ATP content) (A2780 [3]; BAY-876 0 (IMT alone), IMT at the μM of c0, IMT 1.88 µM): 29%
- Measured residual activity (cellular ATP content) (A2780 [3]; Olaparib 0 (IMT alone), IMT (3S)-1-[(2R)-2-[4-(2-chloro-4-fluoro-phenyl)-2-oxo-chromen-7-yl]oxypropanoyl]piperidine-3-carboxylic acid at the μM of c0): 30%
- Measured residual activity (cellular ATP content) (A2780 [3]; Rucaparib 0 (IMT alone), IMT (3S)-1-[(2R)-2-[4-(2-chloro-4-fluoro-phenyl)-2-oxo-chromen-7-yl]oxypropanoyl]piperidine-3-carboxylic acid at the μM of c0): 25%
- Measured residual activity (cellular ATP content) (A2780 [3]; Veliparib 0 (IMT alone), IMT (3S)-1-[(2R)-2-[4-(2-chloro-4-fluoro-phenyl)-2-oxo-chromen-7-yl]oxypropanoyl]piperidine-3-carboxylic acid at the μM of c0, IMT 0.2 µM): 29%
- Measured residual activity (cellular ATP content) (A2780 [3]; Veliparib 0 (IMT alone), IMT (3S)-1-[(2R)-2-[4-(2-chloro-4-fluoro-phenyl)-2-oxo-chromen-7-yl]oxypropanoyl]piperidine-3-carboxylic acid at the μM of c0, IMT 7.5 µM): 31%
